Assay results: the NIST ThermoML archive (doi:10.1016/j.fluid.2004.10.023)
± gives the expanded uncertainty stated by the source.

Details: Liquid, Closed cell (Static) method

Row | vapor or sublimation pressure (318.4 K) [kPa] | Compound | also measured
1 |  | C=CCC [1-butene] | vapor or sublimation pressure (318.42 K): 525.55 ± 2.3 kPa
2 |  | CC(C)C [2-methylpropane] | vapor or sublimation pressure (318.39 K): 607.54 ± 2.6 kPa
3 | 538.15 ± 2.3 | C=C(C)C [2-methylpropene] | 
4 | 391.45 ± 1.8 | C/C=C\C [(Z)-2-butene] | 
5 | 436.55 ± 1.9 | CCCC [butane] | 
6 | 31.37 ± 0.42 | CCOC(C)=O [ethyl acetate] | 
